Measurements: the NIST ThermoML archive (doi:10.1016/j.fluid.2010.01.019)
Numbers after ± are expanded uncertainties.

Settings: Liquid, Vibrating tube method

CCCCC(=O)OCC(COCC(COC(=O)CCCC)(COC(=O)CCCC)COC(=O)CCCC)(COC(=O)CCCC)COC(=O)CCCC
mass density [kg/m3]
Settings | 100 kPa | 1000 kPa | 5000 kPa | 10000 kPa | 20000 kPa | 30000 kPa | 40000 kPa | 50000 kPa | 60000 kPa | 70000 kPa
283.15 K | 1045 ± 5.9 | 1045.5 ± 5.9 | 1047.7 ± 5.9 | 1050.4 ± 6 | 1055.8 ± 6.1 | 1060.9 ± 6.2 | 1065.8 ± 6.3 | 1070.5 ± 6.3 | 1075 ± 6.4 | 1079.3 ± 6.5
298.15 K | 1033.7 ± 5.8 | 1034.2 ± 5.8 | 1036.7 ± 5.8 | 1039.7 ± 5.9 | 1045.4 ± 5.9 | 1050.7 ± 6 | 1055.9 ± 6.1 | 1060.8 ± 6.2 | 1065.5 ± 6.3 | 1070 ± 6.4
323.15 K | 1014.6 ± 5.6 | 1015.2 ± 5.6 | 1018 ± 5.6 | 1021.3 ± 5.6 | 1027.6 ± 5.7 | 1033.5 ± 5.8 | 1039 ± 5.9 | 1044.4 ± 6 | 1049.5 ± 6.1 | 1054.3 ± 6.2
333.15 K | 1007 ± 5.5 | 1007.7 ± 5.5 | 1010.6 ± 5.5 | 1014 ± 5.6 | 1020.6 ± 5.6 | 1026.7 ± 5.7 | 1032.4 ± 5.8 | 1037.9 ± 5.9 | 1043.2 ± 6 | 1048.2 ± 6.1
348.15 K | 995.5 ± 5.3 | 996.3 ± 5.4 | 999.4 ± 5.4 | 1003.1 ± 5.4 | 1010 ± 5.5 | 1016.4 ± 5.6 | 1022.5 ± 5.7 | 1028.3 ± 5.8 | 1033.8 ± 5.9 | 1039.1 ± 5.9
373.15 K | 975.7 ± 11 | 977.3 ± 7.6 | 980.8 ± 7.7 | 984.9 ± 7.7 | 992.5 ± 7.7 | 999.6 ± 7.8 | 1006.2 ± 7.8 | 1012.5 ± 7.9 | 1018.4 ± 7.9 | 1024 ± 8
398.15 K | 957 ± 11 | 957.8 ± 7.5 | 961.4 ± 7.5 | 965.9 ± 7.6 | 974.4 ± 7.6 | 982.1 ± 7.7 | 989.3 ± 7.7 | 996.1 ± 7.7 | 1002.4 ± 7.8 | 1008.4 ± 7.8

CCCCCCC(=O)OCC(COCC(COC(=O)CCCCCC)(COC(=O)CCCCCC)COC(=O)CCCCCC)(COC(=O)CCCCCC)COC(=O)CCCCCC [dipentaerythritol hexaheptanoate]
mass density [kg/m3]
Settings | 100 kPa | 1000 kPa | 5000 kPa | 10000 kPa | 20000 kPa | 30000 kPa | 40000 kPa | 50000 kPa | 60000 kPa | 70000 kPa
283.15 K | 1000.3 ± 5.4 | 1000.9 ± 5.4 | 1003.2 ± 5.4 | 1005.9 ± 5.5 | 1011.2 ± 5.5 | 1016.1 ± 5.6 | 1020.8 ± 5.7 | 1025.4 ± 5.7 | 1029.9 ± 5.8 | 1034.2 ± 5.9
298.15 K | 989.7 ± 5.3 | 990.3 ± 5.3 | 992.8 ± 5.3 | 995.7 ± 5.4 | 1001.3 ± 5.4 | 1006.4 ± 5.5 | 1011.3 ± 5.5 | 1016.1 ± 5.6 | 1020.7 ± 5.7 | 1025.2 ± 5.7
323.15 K | 971.7 ± 5.1 | 972.2 ± 5.1 | 974.9 ± 5.1 | 978.2 ± 5.2 | 984.4 ± 5.2 | 990.1 ± 5.3 | 995.5 ± 5.4 | 1000.6 ± 5.4 | 1005.6 ± 5.5 | 1010.3 ± 5.5
333.15 K | 964.4 ± 5 | 965.1 ± 5 | 967.9 ± 5.1 | 971.3 ± 5.1 | 977.8 ± 5.2 | 983.7 ± 5.2 | 989.3 ± 5.3 | 994.6 ± 5.4 | 999.7 ± 5.4 | 1004.6 ± 5.5
348.15 K | 953.7 ± 4.9 | 954.4 ± 4.9 | 957.4 ± 5 | 961 ± 5 | 967.8 ± 5.1 | 974.1 ± 5.2 | 980 ± 5.2 | 985.6 ± 5.3 | 990.9 ± 5.3 | 996 ± 5.4
373.15 K | 935 ± 11 | 936.6 ± 7.4 | 939.9 ± 7.4 | 943.9 ± 7.5 | 951.4 ± 7.5 | 958.3 ± 7.6 | 964.7 ± 7.6 | 970.8 ± 7.6 | 976.5 ± 7.7 | 981.9 ± 7.7
398.15 K | 917.4 ± 11 | 918.2 ± 7.3 | 921.7 ± 7.3 | 926.1 ± 7.4 | 934.4 ± 7.4 | 941.9 ± 7.5 | 948.9 ± 7.5 | 955.5 ± 7.6 | 961.6 ± 7.6 | 967.3 ± 7.6
